{
  "source": "patent US10533228B2",
  "about": "“3.beta-hydroxysteroid dehydrogenase in steroid dependent disease” (THE CLEVELAND CLINIC FOUNDATION, priority 2013, dated 2020)",
  "molecules": {"B1": {"name": "shHSD3B1 #1: lentiviral miR30-styled shRNA against HSD3B1 (SEQ ID NO: 9) (nucleic acid)", "chain": "TGCTGTTGACAGTGAGCGACCTCATACAGAAAGTGACAAGTAGTGAAGCCACAGATGTACTTGTCACTTTCTGTATGAGGCTGCCTACTGCCTCGGA"}, "B2": {"name": "shHSD3B1 #2: lentiviral miR30-styled shRNA against HSD3B1 (SEQ ID NO: 10) (nucleic acid)", "chain": "TGCTGTTGACAGTGAGCGAAGAGGAAAGACCATGTGGTTTTAGTGAAGCCACAGATGTAAAACCACATGGTCTTTCCTCTGTGCCTACTGCCTCGGA"}},
  "key": {"3βHSD1 (367N)": {"tested_on": "3βHSD1 (367N)", "assay": "Western blot of endogenous 3βHSD1 protein in LAPC4 after degradation inhibitor", "type": "cell-based, human", "conditions": "LAPC4, 10 μM", "description": "For Western blot analysis, whole cell protein extract was harvested using RIPA buffer (Sigma-Aldrich) with protease inhibitor cocktail (Roche). […] The protein was transferred to a PVDF membrane and was detected by mouse anti-3βHSD1 (Sigma), rabbit anti-HA (Santa Cruz Biotechnology, Santa Cruz, Calif.), and mouse anti-β-actin (Sigma) antibodies. […]"}, "3βHSD1 (367T)": {"tested_on": "3βHSD1 (367T)", "assay": "Western blot of endogenous 3βHSD1 protein in LNCaP after proteasome inhibitor", "type": "cell-based, human", "conditions": "10 μM, 8 hours", "experimental": "For Western blot analysis, whole cell protein extract was harvested using RIPA buffer (Sigma-Aldrich) with protease inhibitor cocktail (Roche). Protein concentration was determined by BCA Protein Assay Reagent (Thermo Scientific, Rockford, Ill.), and 20 μg protein was resolved by 8.5% SDS-PAGE. The protein was transferred to a PVDF membrane and was detected by mouse anti-3βHSD1 (Sigma), rabbit anti-HA (Santa Cruz Biotechnology, Santa Cruz, Calif.), and mouse anti-β-actin (Sigma) antibodies. To determine the role of the ERAD pathway in 3βHSD1 stability, cells were treated with Eeyarestatin (Sigma) for 6 hours before harvesting cell lysate."}, "[1]": {"tested_on": "polyubiquitinated 3βHSD1 (367N)", "assay": "Anti-ubiquitin immunoprecipitation in LAPC4", "type": "cell-based, human", "conditions": "LAPC4, 10 μM; 8 hours", "experimental": "Pre-cleared lysate was incubated with mouse anti-ubiquitin antibody (Santa Cruz) at 4° C. for 3 hours and followed by adding 40 μl of Protein AG UltraLink Resin (Thermo Scientific) for another hour for pull down. After extensive washing with lysis buffer, the purified proteins were eluted with 25 μl 2×SDS sample buffer and analyzed by Western blot."}, "[2]": {"tested_on": "polyubiquitinated 3βHSD1(367T)", "assay": "Anti-ubiquitin immunoprecipitation in LNCaP", "type": "cell-based, human", "conditions": "10 uM, 8 hours"}, "3βHSD1": {"tested_on": "3βHSD1", "assay": "Lentiviral shRNA knockdown, 3βHSD1 immunoblot in LNCaP", "type": "cell-based, human", "conditions": "stable lentiviral expression", "experimental": "Lentiviral vector construction, viral packaging and infection were performed as previously described. Chang et al., Proc. Natl. Acad. Sci. USA, 108, 13728-13733 (2011). Briefly, […] miR30-styled shRNA sequences (#1: 5′-[…] […]-3′ (SEQ ID NO: 9); #2: 5′-[…] […]-3′ (SEQ ID NO: 10)) against HSD3B1 were PCR amplified and cloned into the pGIPZ vector (Open Biosystems, Huntsville, Ala.) and confirmed by sequencing. Virus packaging was carried out in 293T cells by co-transfecting 10 μg each of pGIPZ, pMD2.G, and psPAX2 vector. To increase transduction efficiency, 30 mL supernatant containing lentiviral particles were collected, filtered with a 0.45 μm nitrocellulose membrane and concentrated by ultracentrifugation at 19,000 rpm for 2 hours and 20 minutes at room temperature without brake. […]\nFor Western blot analysis, whole cell protein extract was harvested using RIPA buffer (Sigma-Aldrich) with protease inhibitor cocktail (Roche). Protein concentration was determined by BCA Protein Assay Reagent (Thermo Scientific, Rockford, Ill.), and 20 μg protein was resolved by 8.5% SDS-PAGE. The protein was transferred to a PVDF membrane and was detected by mouse anti-3βHSD1 (Sigma), rabbit anti-HA (Santa Cruz Biotechnology, Santa Cruz, Calif.), and mouse anti-β-actin (Sigma) antibodies. […]"}, "LNCaP xenografts": {"tested_on": "LNCaP xenografts", "assay": "LNCaP xenograft CRPC growth in orchiectomized mice with DHEA pellet", "type": "in vivo, mouse", "conditions": "orchiectomy and DHEA pellet", "experimental": "Mouse xenograft studies and abiraterone acetate treatment were done as described in detail previously. Li et al., Clin Cancer Res 18, 3571-3579 (2012). Briefly, male NOD/SCID mice 6 to 8 weeks of age were obtained from the UT Southwestern Animal Resources Center, underwent surgical orchiectomy and a DHEA pellet (5 mg 90-day sustained-release) implantation and 2 days later underwent subcutaneous injection with 7×10^6 LAPC4 cells. Tumors reaching 300 mm^3 volume were treated with intraperitoneal abiraterone acetate or vehicle (n=8 mice per treatment) once daily for 5 days per week for 4 weeks. Tumors were fresh frozen upon mouse sacrifice. For the studies of mutant 3βHSD1 knockdown, LNCaP cells (7×10^6) stably expressing shHSD3B1 #1, #2 and shCTRL were subcutaneously injected with matrigel into eugonadal NOD/SCID mice (n=15 per group). Mice with tumors reaching 100 mm^3 volume underwent surgical castration and DHEA pellet implantation. Time from castration to tumor volume ≥600 mm^3 was assessed. For the comparison between wild type and mutant 3βHSD1, LAPC4 cells (7×10^6) stably expressing pLVX-Tight-Puro-HSD3B1 (367N) or pLVX-Tight-Puro-HSD3B1 (367T) were subcutaneously injected into surgically orchiectomized NOD/SCID mice supplemented with a DHEA (5 mg 90-day sustained-release) pellet. Tumor diameters were measured by digital calipers two or three times per week."}},
  "note": "Where a SMILES comes first, the peptide text is derived from it. The star is where a group is joined. Cbz = O=C(OCc1ccccc1)*",
  "data": [
    {"molecule": "CC(C)C[C@@H](C=O)NC(=O)[C@H](CC(C)C)NC(=O)[C@H](CC(C)C)NC(=O)OCc1ccccc1", "note": "[MG132] (Cbz-Leu-Leu-Leu-aldehyde)", "values": [
      {"measurement": "3βHSD1 (367N) protein level", "setting": "3βHSD1 (367N); 8 hours", "result": "reverses 3βHSD1 (367N) protein loss"},
      {"measurement": "3βHSD1 (367T) protein level", "setting": "3βHSD1 (367T)", "result": "no 3βHSD1 (367T) protein increase"},
      {"measurement": "polyubiquitinated 3βHSD1 (367N) protein", "setting": "[1]", "result": "increase in polyubiquitinated 3βHSD1 (367N) protein"},
      {"measurement": "polyubiquitinated 3βHSD1(367T) protein", "setting": "[2]", "result": "no increase in polyubiquitinated 3βHSD1(367T) protein"}
    ]},
    {"molecule": "CC1(C)C(N(O)C(=O)Nc2ccc(Cl)cc2)N(c2ccc(Cl)cc2)C(=O)N1CC(=O)N/N=C/C=C/c1ccc([N+](=O)[O-])o1", "note": "(stereo not drawn) [Eeyarestatin I]", "values": [
      {"measurement": "endogenous 3βHSD1 protein", "setting": "3βHSD1 (367N)", "result": "increases endogenous 3βHSD1 protein"}
    ]},
    {"molecule": "B1", "values": [
      {"measurement": "3βHSD1 protein expression", "setting": "3βHSD1", "result": "silences 3βHSD1 protein expression"},
      {"measurement": "CRPC growth (days from orchiectomy to tumor volume ≥600 mm^3)", "setting": "LNCaP xenografts", "result": "blocks CRPC growth"}
    ]},
    {"molecule": "B2", "values": [
      {"measurement": "3βHSD1 protein expression", "setting": "3βHSD1", "result": "silences 3βHSD1 protein expression"},
      {"measurement": "CRPC growth (days from orchiectomy to tumor volume ≥600 mm^3)", "setting": "LNCaP xenografts", "result": "blocks CRPC growth"}
    ]}
  ]
}
